# According to patent publication US20260335323A1, “CHIMERIC MOLECULE” (UCL Business Ltd, priority 2023, published 2026):
# Molecular target: T1, ULK1 (Homo sapiens, UniProt O75385)
# T1 sequence (O75385 1-1050): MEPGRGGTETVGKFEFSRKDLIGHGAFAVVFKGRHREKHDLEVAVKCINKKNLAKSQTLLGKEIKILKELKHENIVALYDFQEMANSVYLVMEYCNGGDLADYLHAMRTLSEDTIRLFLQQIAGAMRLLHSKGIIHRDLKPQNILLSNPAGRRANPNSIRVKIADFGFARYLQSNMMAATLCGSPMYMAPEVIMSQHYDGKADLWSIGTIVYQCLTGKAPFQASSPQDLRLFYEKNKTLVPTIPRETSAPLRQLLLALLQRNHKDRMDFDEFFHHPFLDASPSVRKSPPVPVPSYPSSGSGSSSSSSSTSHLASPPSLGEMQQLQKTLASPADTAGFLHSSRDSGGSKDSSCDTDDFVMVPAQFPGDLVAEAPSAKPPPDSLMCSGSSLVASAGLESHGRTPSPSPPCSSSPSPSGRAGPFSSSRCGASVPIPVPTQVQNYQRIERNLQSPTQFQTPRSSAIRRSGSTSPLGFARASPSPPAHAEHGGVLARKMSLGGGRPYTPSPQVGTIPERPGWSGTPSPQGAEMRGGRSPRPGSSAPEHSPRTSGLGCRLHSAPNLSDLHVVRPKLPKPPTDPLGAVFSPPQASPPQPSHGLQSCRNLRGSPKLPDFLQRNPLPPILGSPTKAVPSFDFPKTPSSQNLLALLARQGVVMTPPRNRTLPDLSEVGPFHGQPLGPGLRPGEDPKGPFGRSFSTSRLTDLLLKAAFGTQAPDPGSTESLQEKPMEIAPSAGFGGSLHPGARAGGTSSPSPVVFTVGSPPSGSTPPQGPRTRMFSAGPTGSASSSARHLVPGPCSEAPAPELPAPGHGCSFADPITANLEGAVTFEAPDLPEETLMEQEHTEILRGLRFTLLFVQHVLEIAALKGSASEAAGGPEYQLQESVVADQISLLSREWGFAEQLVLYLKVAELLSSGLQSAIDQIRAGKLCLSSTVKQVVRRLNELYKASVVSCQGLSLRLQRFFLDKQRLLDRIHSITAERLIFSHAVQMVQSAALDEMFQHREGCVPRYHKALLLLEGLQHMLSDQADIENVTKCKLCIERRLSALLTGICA
# Experiment: Western blot, phosphorylation of ULK1 at Ser317 in PANC-1 cells
# Format: cell-based
# Set-up: pSer317 blot or TOM20 co-localisation
# Text: FIG. 2. BL-918 is a potent ULK1 agonist and autophagy inducer (A) Representative images of PANC-1 cells stably expressing the mCherry-EGFP-LC3 tandem reporter treated with ULK1 agonists. Nuclei stained with Hoechst 33342, autophagosomes are shown in the EGFP channel and autolysosomes in the mCherry channel. Fold change in the number of autophagosomes (B) and autolysosomes (C) puncta in ULK1 agonist treated cells. (D) Western blot of PANC-1 cells treated with DMSO, bafilomycin and ULK1 agonists±bafilomycin; probed for p-ULK1 (S317), ULK1, p62, b-actin, LC3-I and LC3-II. Quantifications of western blot for changes in the ratio of p-ULK1 (S317):ULK1 (E), p62 (F) and LC31:LC3II (G). All data shown are mean±SEM, n=3, *p<0.05, ** p<0.01, one-way ANOVA with Dunnett's multiple comparisons test.
# FIG. 4. ULKTACs retain ULK1 agonist activity and subsequent induction of autophagy (A) Western blot of PANC-1 cells treated with ULKTACs±bafilomycin, probed for p-ULK1 (S317), ULK1, p62, b-Actin, LC31 and LC3II. Quantifications of (A) for the pULK1:ULK1 ratio (B) LC3I:LC3II ratio (C) and changes in p62 (D). (E) Representative images of PANC-1 cells stably expressing the mCherry-EGFP-LC3 tandem reporter treated with ULKTACs w/or w/o bafilomycin. Nuclei stained with Hoechst 33342, autophagosomes are shown in the EGFP channel and autolysosomes in the mCherry channel. Fold change in the number of autophagosome (F) and autolysosome (G) puncta. Data shown are mean±SEM, *p<0.05, ** p<0.01, *** p<0.001, one-way ANOVA, Dunnett's multiple comparisons test.
# Cells were homogenised in protein lysis buffer consisting of 0.1 M Tris pH 8.0, 0.1 M NaCl, 5% glycerol, IGEPAL® CA-630 (#18896. Sigma-Aldrich) and 5 mM EDTA, 0.1 M N-ethyl maleimide (ThermoFisher, #23030) and protease inhibitor (Cell Signalling Technologies, #5871). Protein concentrations were determined using the BCA assay to ensure equal loading. […] The membranes were immunoblotted with primary antibodies, overnight at 4° C. ULK1 (D8H5) Rabbit mAb (#0854) [1:1000], Phospho-ULK1 (Ser 317) Rabbit antibody (#37762) [1:1000], LC3B Rabbit antibody (#2775) [1:1000], TOM20 (D8T4N) Rabbit mAb (#42406) [1:1000] and, Phospho-Ubiquitin (Ser 65) (E2J6T) Rabbit mAb (#62082) [1:500] were obtained from Cell Signalling Technologies. Recombinant Anti-Vinculin Rabbit antibody (EPR8185) (#ab129002) [1:5000] and Anti-Mitofusin2 mouse antibody (6A8) (#ab56889) [1:1000] were purchased from Abcam. […]
# Membranes were then incubated with horseradish peroxidase (HRP)-conjugated secondary antibodies (Rabbit #7074 and Mouse #7076) purchased from Cell Signalling Technologies for 1 hour and the HRP signal was detected using EZ-ECL Enhanced Chemiluminescence Detection Kit for HRP (#20-500-500, Sartorius), and imaged with an Alliance Q9 Advanced (UVITec). […]
phosphorylation of ULK1 at Ser317,activation of ULK1 and autophagy (overall),SMILES
strong increase in phospho-Ser317 levels,–,"O=C(Nc1cc(C(F)(F)F)cc(C(F)(F)F)c1)N[C@@H](C(=O)Nc1ccc(F)cc1F)c1ccc(OCc2cn(CCOCCOCCNC(=O)C(=O)c3c(-c4ccccc4)[nH]c4ccccc34)nn2)cc1 [NZ-65, (R)-2-(3-(3,5-bis(trifluoromethyl)phenyl)ureido)-N-(2,4-difluorophenyl)-2-(4-((1-(2-(2-(2-(2-oxo-2-(2-phenyl-1H-indol-3-yl)acetamido)ethoxy)ethoxy)ethyl)-1H-1,2,3-triazol-4-yl)methoxy)phenyl) acetamide]"
strong increase in phospho-Ser317 levels,–,"O=C(Nc1cc(C(F)(F)F)cc(C(F)(F)F)c1)N[C@@H](C(=O)Nc1ccc(F)cc1F)c1ccc(OCc2cn(CCCCCCNC(=O)C(=O)c3c(-c4ccccc4)[nH]c4ccccc34)nn2)cc1 [NZ-66, (R)-2-(3-(3,5-bis(trifluoromethyl)phenyl)ureido)-N-(2,4-difluorophenyl)-2-(4-((1-(6-(2-oxo-2-(2-phenyl-1H-indol-3-yl)acetamido)hexyl)-1H-1,2,3-triazol-4-yl)methoxy)phenyl) acetamide]"

SMILES,phosphorylation of ULK1 at Ser317,activation of ULK1 and autophagy (overall)
"O=C(Nc1ccc(F)cc1F)[C@H](NC(=S)Nc1cc(C(F)(F)F)cc(C(F)(F)F)c1)c1ccccc1 [BL-918, reference compound]",induction of phosphorylation of ULK1 at Ser317,potent activator of ULK1 and autophagy
